Columns and labels:
H441 = experiment: MTS tetrazolium salt cytotoxicity assay; format: cell-based, human; conditions: 12 hrs
Description: Hep3B was incubated in Dulbecco's Modified Eagle's medium (DMEM), while H441 and MCF-7 were incubated in RPMI-1640, both of the media containing 10% fetal bovine serum and 40 mg/L gentamycin.
The cytotoxicity of cancer cells was determined using tetrazolium salt assay (MTS, Mosmann. T., 1983, Immunol. Meth., 65, 55–63), which was conducted for the calorimetric determination of cell viability according to the manufacturer's procedures (CellTiter 96™ AQ, Promega, Madison, USA).
Cells were seeded at 1×10^4 cells/well in a 96-well plate and incubated in 5% CO2 incubator at 37° C. for at least 16 hrs. The water-soluble extract from Solanum incanum L. was dissolved in sterile injection water to give different test concentrations, which were added to each cancer-cell incubating medium in the well, and allowed to react for 12 hrs. 20 μl MTS was then added to each well, and the solution was allowed to react for 3 hrs. Upon completion of the reaction, absorbency in each well was determined at 490 nm by using ELISA reader 312e, Bio-TEK. Each value was expressed as means ±SD from three experiments.
Cytotoxicity was determined by MTS tetrazolium salt assay disclosed in Pharmacological assay 1. […] Data were expressed as means ±SD from three experiments.

dissolving in water = format: physicochemical
[1] = dried powders, without being pre-treated with DMSO
[2] = purified from the water-soluble extract by HPLC

Row | Structure (SMILES) | inhibiting the growth of H441 (H441) | dissolving in water (dissolving in water; [1]) | dissolving in water (dissolving in water; [2])
1 | C[C@@H]1CC[C@@]2(NC1)O[C@H]1C[C@H]3[C@@H]4CC=C5C[C@@H](O[C@@H]6O[C@H](CO)[C@@H](O[C@@H]7O[C@@H](C)[C@H](O)[C@@H](O)[C@H]7O)[C@H](O)[C@H]6O[C@@H]6O[C@@H](C)[C@H](O)[C@@H](O)[C@H]6O)CC[C@]5(C)[C@H]4CC[C@]3(C)[C@H]1[C@@H]2C [solamargine] | effectively inhibited | could not dissolve in water | directly dissolved in water
2 | C[C@@H]1CC[C@@]2(NC1)O[C@H]1C[C@H]3[C@@H]4CC=C5C[C@@H](O[C@@H]6O[C@H](CO)[C@H](O)[C@H](O[C@@H]7O[C@H](CO)[C@@H](O)[C@H](O)[C@H]7O)[C@H]6O[C@@H]6O[C@@H](C)[C@H](O)[C@@H](O)[C@H]6O)CC[C@]5(C)[C@H]4CC[C@]3(C)[C@H]1[C@@H]2C [solasonine] | effectively inhibited | could not dissolve in water | directly dissolved in water
